Reference: ChEMBL document CHEMBL1201862, “PubChem BioAssay data set” (2004)
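In this assay, cells in 96-well plates receive the compound at five concentrations for 48 hours. Endpoints are linearly interpolated between the surrounding concentrations. GI50 = concentration required for 50% inhibition of growth.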 Active and inactive are the calls of the source. Rule as the data show it: active = GI50 up to about 1.1 µM and inactive = higher.

Legend:
Test in all cases: NCI tumour cell line growth inhibition, 48 h
DMS-114 = test system: DMS-114
HOP-18 = test system: HOP-18
DMS-273 = test system: DMS-273
KM-20L2 = test system: KM-20L2
DLD-1 = test system: DLD-1
LXFL 529 = test system: LXFL 529
XF498 = test system: XF498
SNB-78 = test system: SNB-78
RXF 631 = test system: RXF 631

## C/C(=N\Nc1ccc([N+](=O)[O-])cc1)C(=O)N(C)Nc1ccccc1
DMS-114
  GI50: 48 µM (inactive)
HOP-18
  GI50: > 100 µM (inactive)
DMS-273
  GI50: 69.8 µM (inactive)
KM-20L2
  GI50: 60.4 µM (inactive)
DLD-1
  GI50: > 100 µM (inactive)
LXFL 529
  GI50: 52.6 µM (inactive)
XF498
  GI50: 63.1 µM (inactive)

## CC12CCC[C@@](C)(C(=O)OC3OC(CO)C(O)C(O)C3O)[C@H]1CCC13CC4CC(OC4(CO)[C@H]1O)[C@@H]23 (stereo partly specified)
DMS-114
  GI50: 24.9 µM (inactive)
HOP-18
  GI50: > 100 µM (inactive)
DMS-273
  GI50: > 100 µM (inactive)
KM-20L2
  GI50: > 100 µM (inactive)
DLD-1
  GI50: > 100 µM (inactive)
SNB-78
  GI50: > 100 µM (inactive)
RXF 631
  GI50: > 100 µM (inactive)
LXFL 529
  GI50: > 100 µM (inactive)
XF498
  GI50: > 100 µM (inactive)

## NC(=O)c1c2c(cc3c(=O)c4ccccc4[nH]c13)CCCC2
DMS-114
  GI50: > 100 µM (inactive)
HOP-18
  GI50: > 100 µM (inactive)
DMS-273
  GI50: > 100 µM (inactive)
KM-20L2
  GI50: > 100 µM (inactive)
DLD-1
  GI50: > 73.1 µM (inactive)
RXF 631
  GI50: > 100 µM (inactive)
LXFL 529
  GI50: > 100 µM (inactive)
XF498
  GI50: > 100 µM (inactive)

## CC1CC2C3CC(F)C4=CC(=O)C=CC4(C)C3(F)C(O)CC2(C)C1(O)C(=O)CO (stereo unspecified)
DMS-114
  GI50: > 100 µM (inactive)
DMS-273
  GI50: > 100 µM (inactive)
KM-20L2
  GI50: > 100 µM (inactive)
DLD-1
  GI50: > 100 µM (inactive)
SNB-78
  GI50: > 100 µM (inactive)
RXF 631
  GI50: > 100 µM (inactive)
XF498
  GI50: > 100 µM (inactive)

## N#CC(C(=O)CCC(=O)C(C#N)c1ccccc1)c1ccccc1 (stereo unspecified)
DMS-114
  GI50: > 100 µM (inactive)
HOP-18
  GI50: > 100 µM (inactive)
DMS-273
  GI50: > 100 µM (inactive)
DLD-1
  GI50: > 100 µM (inactive)
SNB-78
  GI50: > 100 µM (inactive)
LXFL 529
  GI50: > 100 µM (inactive)
XF498
  GI50: > 100 µM (inactive)

## CC(=O)NC1=C(NCCC(C)C)C(=O)c2ccccc2C1=O
DMS-273
  GI50: > 50 µM (inactive)
KM-20L2
  GI50: > 50 µM (inactive)
DLD-1
  GI50: > 50 µM (inactive)
SNB-78
  GI50: > 50 µM (inactive)
LXFL 529
  GI50: > 50 µM (inactive)
XF498
  GI50: > 50 µM (inactive)

## COC1(OC)CCCCC2c3cccc(OC(C)=O)c3C21OC(C)=O (stereo unspecified)
DMS-114
  GI50: > 100 µM (inactive)
HOP-18
  GI50: > 100 µM (inactive)
DMS-273
  GI50: > 100 µM (inactive)
DLD-1
  GI50: > 100 µM (inactive)
SNB-78
  GI50: > 100 µM (inactive)
LXFL 529
  GI50: > 100 µM (inactive)
XF498
  GI50: 29.2 µM (inactive)

## COC(=O)C1=CC2OC1(C)C1(CC1)C2=O (stereo unspecified)
DMS-273
  GI50: > 10 µM (inactive)
KM-20L2
  GI50: 17.5 µM (inactive)
DLD-1
  GI50: 14.3 µM (inactive)
LXFL 529
  GI50: 18.5 µM (inactive)
XF498
  GI50: 14.7 µM (inactive)

## COC(=O)c1c/c(=N\NC(=O)CC(=O)Nc2ccccc2OC)c2ccccc2o1
DMS-114
  GI50: > 100 µM (inactive)
HOP-18
  GI50: 15.2 µM (inactive)
DMS-273
  GI50: > 100 µM (inactive)
KM-20L2
  GI50: > 100 µM (inactive)
DLD-1
  GI50: > 100 µM (inactive)
SNB-78
  GI50: > 100 µM (inactive)
LXFL 529
  GI50: > 100 µM (inactive)

## CN(C)CCNc1ccc2ncn3c4ccccc4c(=O)c1c23
DMS-114
  GI50: 2.02 µM (inactive)
HOP-18
  GI50: 1.17 µM (inactive)
KM-20L2
  GI50: 2.13 µM (inactive)
DLD-1
  GI50: 1.96 µM (inactive)
SNB-78
  GI50: 3.04 µM (inactive)
LXFL 529
  GI50: 2.7 µM (inactive)

## O=S(=O)(O)SC/C=C\CSS(=O)(=O)O
DMS-114
  GI50: 42.7 µM (inactive)
HOP-18
  GI50: > 100 µM (inactive)
DMS-273
  GI50: 69.5 µM (inactive)
KM-20L2
  GI50: > 100 µM (inactive)
DLD-1
  GI50: > 100 µM (inactive)
SNB-78
  GI50: > 100 µM (inactive)
RXF 631
  GI50: 37.5 µM (inactive)
LXFL 529
  GI50: > 100 µM (inactive)
XF498
  GI50: > 100 µM (inactive)

## NC(=S)N/N=C1\CCCC\C1=C/c1ccccc1
DMS-114
  GI50: 37.3 µM (inactive)
HOP-18
  GI50: 38.2 µM (inactive)
DMS-273
  GI50: 18.5 µM (inactive)
KM-20L2
  GI50: > 100 µM (inactive)
DLD-1
  GI50: 33.2 µM (inactive)
SNB-78
  GI50: > 100 µM (inactive)
RXF 631
  GI50: 89.3 µM (inactive)
LXFL 529
  GI50: 31.4 µM (inactive)

## COC(=O)C1C(=O)N(CCc2c[nH]c3ccccc23)C[C@@H]2CCC(=O)C[C@H]12 (stereo partly specified)
DMS-114
  GI50: > 100 µM (inactive)
DMS-273
  GI50: > 100 µM (inactive)
DLD-1
  GI50: > 100 µM (inactive)
SNB-78
  GI50: > 100 µM (inactive)
RXF 631
  GI50: > 100 µM (inactive)
LXFL 529
  GI50: > 100 µM (inactive)
XF498
  GI50: > 100 µM (inactive)

## Cc1cc(O)nc(NN2C(Cl)C(=O)C2c2ccccc2O)n1 (stereo unspecified)
DMS-114
  GI50: 1.32 µM (inactive)
HOP-18
  GI50: 1.6 µM (inactive)
DMS-273
  GI50: 1.96 µM (inactive)
KM-20L2
  GI50: 10.7 µM (inactive)
SNB-78
  GI50: 24.3 µM (inactive)
LXFL 529
  GI50: 2.62 µM (inactive)

## COC(=O)C(Cc1nc2ccccc2nc1O)C(NO)C(=O)Nc1c(Cl)cc([N+](=O)[O-])cc1Cl (stereo unspecified)
DMS-114
  GI50: 21.2 µM (inactive)
DLD-1
  GI50: 28.9 µM (inactive)
SNB-78
  GI50: 40.8 µM (inactive)

## O=C1CC(c2ccc(Cl)cc2)=Nc2ccccc2N1
DMS-114
  GI50: 81.5 µM (inactive)
HOP-18
  GI50: 40.9 µM (inactive)
DMS-273
  GI50: 79.1 µM (inactive)
KM-20L2
  GI50: > 100 µM (inactive)
DLD-1
  GI50: > 100 µM (inactive)
SNB-78
  GI50: 86.7 µM (inactive)
RXF 631
  GI50: 74.6 µM (inactive)
LXFL 529
  GI50: > 100 µM (inactive)

## COc1ccc(/C=c2/sc3n(c2=O)NC2(CCCCC2)NN=3)cc1
DMS-273
  GI50: > 100 µM (inactive)
KM-20L2
  GI50: > 100 µM (inactive)
DLD-1
  GI50: > 100 µM (inactive)
SNB-78
  GI50: > 100 µM (inactive)
LXFL 529
  GI50: > 100 µM (inactive)
XF498
  GI50: > 100 µM (inactive)

## C[N+]1=C(c2cccnc2/C=N/O)OCC1(C)C
DMS-114
  GI50: > 100 µM (inactive)
HOP-18
  GI50: > 100 µM (inactive)
DMS-273
  GI50: > 100 µM (inactive)
KM-20L2
  GI50: > 100 µM (inactive)
DLD-1
  GI50: > 100 µM (inactive)
SNB-78
  GI50: > 100 µM (inactive)
LXFL 529
  GI50: > 100 µM (inactive)
XF498
  GI50: > 100 µM (inactive)

## CCOC(=O)C1N(S(=O)(=O)c2ccc(C)cc2)CCC12c1ccccc1N(C(C)=O)C2C(/C=C/C(=O)OC)=C/C(=O)OC (stereo unspecified)
DMS-114
  GI50: > 100 µM (inactive)
DMS-273
  GI50: 89.9 µM (inactive)
KM-20L2
  GI50: > 100 µM (inactive)
DLD-1
  GI50: > 100 µM (inactive)
SNB-78
  GI50: > 100 µM (inactive)
LXFL 529
  GI50: > 100 µM (inactive)
XF498
  GI50: > 100 µM (inactive)

## CCOC(=O)CCC(NC(=O)c1ccc(/N=C/c2nc3cc(C(F)(F)F)ccc3nc2-c2ccccc2)cc1)C(=O)OCC (stereo unspecified)
DMS-114
  GI50: 34.3 µM (inactive)
HOP-18
  GI50: > 100 µM (inactive)
DMS-273
  GI50: > 100 µM (inactive)
KM-20L2
  GI50: > 50 µM (inactive)
DLD-1
  GI50: > 50 µM (inactive)
SNB-78
  GI50: 10 µM (inactive)
LXFL 529
  GI50: 43.1 µM (inactive)
XF498
  GI50: 2.81 µM (inactive)

## C/C(=N\N=C(/[SeH])N1CC2CCC(CC2)C1)c1ccccn1
DMS-114
  GI50: < 0.01 µM (active)
HOP-18
  GI50: 0.294 µM (active)
DMS-273
  GI50: 0.0136 µM (active)
KM-20L2
  GI50: < 0.01 µM (active)
DLD-1
  GI50: < 0.01 µM (active)
SNB-78
  GI50: 0.216 µM (active)
RXF 631
  GI50: 0.4 µM (active)
LXFL 529
  GI50: < 0.01 µM (active)
XF498
  GI50: < 0.01 µM (active)

## CCOc1ccccc1NC(=O)C(=O)CC(=O)c1c(C)[n+]([O-])c2ccccc2[n+]1[O-]
DMS-114
  GI50: > 100 µM (inactive)
HOP-18
  GI50: 46.5 µM (inactive)
DMS-273
  GI50: > 100 µM (inactive)
KM-20L2
  GI50: 75.7 µM (inactive)
SNB-78
  GI50: > 100 µM (inactive)
LXFL 529
  GI50: > 100 µM (inactive)

## CC1(C)CC(=O)C(=[N+]=[N-])C(=O)C1
DMS-114
  GI50: > 100 µM (inactive)
KM-20L2
  GI50: > 100 µM (inactive)
DLD-1
  GI50: > 100 µM (inactive)
LXFL 529
  GI50: > 100 µM (inactive)
XF498
  GI50: > 100 µM (inactive)

## CCOC(=O)C(C)(C)Oc1ccc2c(=O)cc(-c3ccccc3)oc2c1
DMS-114
  GI50: 17.9 µM (inactive)
HOP-18
  GI50: 22.8 µM (inactive)
KM-20L2
  GI50: 24.2 µM (inactive)
SNB-78
  GI50: 26.7 µM (inactive)
LXFL 529
  GI50: 19 µM (inactive)

## O=C(CCC(=O)C1Cc2ccccc2C1=O)Nc1cccc(C(F)(F)F)c1 (stereo unspecified)
HOP-18
  GI50: > 100 µM (inactive)
DMS-273
  GI50: > 100 µM (inactive)
KM-20L2
  GI50: > 100 µM (inactive)
DLD-1
  GI50: > 100 µM (inactive)
SNB-78
  GI50: > 100 µM (inactive)
RXF 631
  GI50: > 100 µM (inactive)
LXFL 529
  GI50: > 100 µM (inactive)

## N#Cc1ccc(OCCSCCCCCCCCCCSCCOc2ccc(C#N)cc2)cc1
DMS-114
  GI50: 1.29 µM (inactive)
HOP-18
  GI50: > 100 µM (inactive)
KM-20L2
  GI50: > 100 µM (inactive)
SNB-78
  GI50: > 100 µM (inactive)
LXFL 529
  GI50: > 100 µM (inactive)
